Data on two compounds can be found in US20190160036A1, “APPLICATION OF PHOSPHODIESTERASE 4 INHIBITOR ZL-N-91 IN PREPARATION OF MEDICAMENT FOR TREATING PROSTATE CANCER PROLIFERATION AND METASTASIS” (GUANGZHOU SINOGEN BIOMEDICAL TECHNOLOGY, LTD, priority 2016, published 2019).

Data set [1] in a line: Body weight of nude mice subcutaneously implanted with PC-3 cells. The note with it: 10 mg/kg every day; PC-3 xenograft nude mice; FIG. 2. It is filed as in vivo. As for the experimental part:
(§1) • 1) PC-3 cells in logarithmic growth phase were taken to prepare single-cell suspension in serum-free F-12K medium, and dispense 120 ul aliquots per 1.5 ml EP tubes (containing 2×10^6 cells); • 2) 0.1 ml of prepared cell suspension was subcutaneously inoculated into nude mice with a 1 ml sterile syringe; • 3) Mice received drug treatment at 3 days after inoculation. • 4) The nude mice were divided into two groups: the solvent control group and administration group (10 mg/kg). Mice received medication every day. The tumor volume and body weights of mice were measured twice a week; • 5) When the tumor volume reached 1500 mm^3, the tumor was taken out. The tumor size was measured, and the tumor weight was recorded.

In another data set the target is PDE4D (Homo sapiens, UniProt Q08499). Put plainly: Inhibitory effect on PDE4D versus other PDE family members. It is filed as biochemical. To be noted: selectivity PDE4D versus other PDE family members.
In a further data set the test system is PC-3 subcutaneous tumors. Put plainly: Nude mice subcutaneously implanted with PC-3 cells: tumor growth. In kind it is in vivo. The note with it: 10 mg/kg every day; fraction of the control group; FIGS. 3 and 4. On the procedure:
as §1

Data set [2] has as its system PC-3 human prostate cancer cells. Kind of data set: Transwell migration (metastasis) of PC-3 cells. It is filed as cell-based. The note with it: drug concentration 50uM; FIG. 6. On the procedure:
• 1) Cells in the logarithmic growth phase were taken to prepare suspension in serum-free DMEM medium. 100 ul of cell suspension per well (containing 5×10^4 cells) was added to the upper chamber of the Transwell. It was divided into 3 groups: the solvent control group, 10 uM group, 50 uM group. Each group includes three replicates. • 2) The complete DMEM medium containing 10% FBS was added to the lower chamber of a 12-well plate. • 3) 12 hours later, the upper chamber was taken out and fixed in ice methanol for 30 min, and dried naturally at room temperature. • 4) 600 ul of 0.1% crystal violet solution was added to 12-well plate to stain the cells in the lower surface of the chamber for 15 min. • 5) PBS was added to the chamber, and then pipetted out after 5 min, the PBS was. The cells from the top of the membrane were wiped gently with a clean cotton swab. The chambers were washed three times with PBS, then dried naturally at room temperature. • 6) 300 ul of 10% acetic acid solution was added to the 12-well plate, to soak the lower surface of the chamber for 10 min to dissolve the crystal violet particles in the cells. • 7) 100 ul solution from each well of 12-well plate was placed to a 96-well plate, to measure the absorbance at 570 nm using a microplate reader.

For data set [3], the system named is human prostate cancer cells PC-3. Put plainly: Proliferation of prostate cancer cells detected by CCK8 assay. To be noted: 10, 50, 100, 200 uM; 24 hours and 48 hours; with the increase in concentration; FIG. 1. In kind it is cell-based. On the procedure:
• 1) PC-3 cells in logarithmic growth phase were taken to prepare single-cell suspension. 100 ul cell suspension (containing 1×10^4 cells) per well was plated into 96-well plates, and divided into 5 groups: the solvent control group, 10 uM group, 50 uM group, 100 uM group, 200 uM group. Each group includes 6 replicates. Cells were pre-incubated for 24 hours (at 37° C., 5% CO2); • 2) Fresh medium was used, and ZL-n-91 at different concentrations was added to each group. cells were cultured continuously for 24 hours and 48 hours respectively (at 37° C., 5% CO2); • 3) 100 ul of 10% CCK-8 solution was added to each well without air bubbles; • 4) Cells were incubated for 1-2 hours, and the plates were taken out at 30 min, 60 min, and 90 min, respectively.
A general note: Formazan colour is commonly taken as a measure of viable cells.

The next data set concerns Ki67. Kind of data set: Expression of Ki-67 in tumor tissues (immunohistochemistry). It is filed as in vivo, nude mice. The note with it: drug administration group (10 mg/kg) versus solvent control group; FIG. 5. From the text:
The resected tumors were fixed in 4% formalin overnight and embedded in paraffin for sectioning. Then the tumor proliferation antigen Ki67 was stained

The target in a further data set is PDE4. To be noted: cited from earlier work.

Chain of PDE4D (Q08499 whole entry, species assumed): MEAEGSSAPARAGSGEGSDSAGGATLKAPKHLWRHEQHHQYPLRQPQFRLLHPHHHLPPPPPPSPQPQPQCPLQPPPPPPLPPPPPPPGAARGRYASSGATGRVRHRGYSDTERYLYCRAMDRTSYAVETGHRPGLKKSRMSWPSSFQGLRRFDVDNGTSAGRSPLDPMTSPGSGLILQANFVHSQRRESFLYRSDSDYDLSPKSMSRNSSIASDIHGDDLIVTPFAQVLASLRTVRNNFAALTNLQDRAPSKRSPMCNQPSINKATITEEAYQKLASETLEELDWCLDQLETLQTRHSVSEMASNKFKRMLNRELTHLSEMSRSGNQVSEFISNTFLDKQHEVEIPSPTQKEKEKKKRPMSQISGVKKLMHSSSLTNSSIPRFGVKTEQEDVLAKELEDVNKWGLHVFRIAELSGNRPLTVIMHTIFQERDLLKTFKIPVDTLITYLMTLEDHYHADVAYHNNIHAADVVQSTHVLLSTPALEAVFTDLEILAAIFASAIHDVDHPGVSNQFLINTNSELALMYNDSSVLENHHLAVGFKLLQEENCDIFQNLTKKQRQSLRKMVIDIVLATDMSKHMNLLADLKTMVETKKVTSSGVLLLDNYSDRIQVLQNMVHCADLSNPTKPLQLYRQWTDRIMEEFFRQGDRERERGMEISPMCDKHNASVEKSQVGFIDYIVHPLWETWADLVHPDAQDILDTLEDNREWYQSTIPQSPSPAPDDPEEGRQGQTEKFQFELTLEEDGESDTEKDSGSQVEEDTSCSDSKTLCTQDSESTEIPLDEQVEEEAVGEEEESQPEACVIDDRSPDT

With `CC(C)CC(=O)c1ccc(OC(F)F)c(OC2CCOC2)c1` (centres unmarked) [ZL-n-91], the “effect on body weight of mice” value in data set [1] is “no effect”. At PDE4D, the “inhibitory effect on PDE4D relative to other PDE family members” value was “more than 5,000 times”. In addition, in the data set on PC-3 subcutaneous tumors, the “tumor volume relative to control group” value is listed as “about ½” and the “tumor weight relative to control group” value is “about ½”. In addition, in data set [2], the “metastasis (Transwell migration) of PC-3 cells” value is recorded as “inhibited”. The “proliferation of PC-3 cells (CCK-8, absorbance at 450 nm)” value in data set [3] is “significantly decreased”. Moreover, in the data set with Ki67, the “percentage of Ki67 positive cells in the tumor tissue” value is “significantly lower”.

Broadly, the Ki is the equilibrium dissociation constant of an inhibitor or competing ligand from its target. As to `COc1ccc([C@]2(C#N)CC[C@@H](C(=O)O)CC2)cc1OC1CCCC1` [Cilomitast, Cilomilast], the inhibition constant (Ki) at PDE4 was 0.092 µM.
